Values of other authors in article PMC12087591 (Drug Design, Development and Therapy, 2025).

Tested on: COVID-19
Settings: unvaccinated COVID-19 patients

## CC(C)(C)[C@H](NC(=O)C(F)(F)F)C(=O)N1C[C@H]2[C@@H]([C@H]1C(=O)N[C@H](C#N)C[C@@H]1CCNC1=O)C2(C)C [nirmatrelvir]
  reduction of hospitalization risk: 89%
